Data: patent publication US12048686B2, “Compositions and methods for activating NRF2-dependent gene expression” (The University of Chicago, priority 2018, dated 2024)
Entries after “also recorded” stand apart in the source; their conditions may differ.

Legend:
[1] = LPS acute lung injury mouse model; assay type: in vivo; conditions: 50 mg/kg intraperitoneally
Description: FIG. 23. Mice treated with CBR-470-2 or vehicle (NaOH) IP and intratracheally instill LPS to induce acute lung injury.
Systemic CBR-470-2 treatment in acute lung injury mouse model reduces bronchial alveolar lavage (immune cells) cell TNF, IL1b and IL6 production (FIG. 23). C57/B6 Mice were treated with either CBR-470-2 (50 mg/kg dissolved in water and NaOH (1:1)) or vehicle (NaOH) intraperitoneally, and intratracheally instill 0.7 mg/kg of lipopolysaccharide (LPS) to induce […].

UVB skin damage model = conditions: mouse
Description: UVB Skin Damage Model. 32 5-week old Balb/c male mice were randomized into 4 groups of 8 animals such that each group had similar body weight means. Mice were prepared for removal of hair from their entire back two days prior to UVB exposure (day 3) by using an electric shaver and depilatory cream. On day 5, mice received exposure to UVB (200 mJ/cm^2) produced by a broad band UVB lamp (Dermapal UVB Rev 2) powered by a Kernel UV Phototherapy system. UVB exposure was confined to a rectangular area of ˜8 cm^2 by a lead shielding mask. UVB doses were confirmed by dosimeter measurements (Daavlin X96). Sham animals were shaved but received no UVB treatment. Mice were dosed from day 0 to study end at day 10 via oral gavage twice daily (CBR-470-2, 50 mg/kg BID PO; BARD, 3 mg/kg PO; Vehicle, 0.5% methyl cellulose/0.5% Tween80). Mice were monitored daily for body weight changes and erythema scoring from days 5 to 10. […] Blinded erythema scores were recorded by a blinded, trained investigator according to established in house scale. […]
Percent wounded area measurements. […] Red content corresponding to wounds was then quantified as a fraction of the whole imaging field and reported as percent wounded area.
Epidermal thickness measurements. […] 24 individual measurements of epidermal thickness from 8 sections spanning a 400 μm step distance were recorded per animal by a non-blinded, trained investigator. […]

IMR32 cells = assay: IMR32 viability with co-treatments (cell titer glo); assay type: cell-based
Description: FIG. 38. PGK1 toxicity can be rescued with metabolites that are involved with GSH biosynthesis and quenching of reactive oxygen species and methylglyoxal. […] IMR32 cells treated for 48 hr in presence of indicated drugs.
PGK1 toxicity can be rescued with metabolites that are involved with GSH biosynthesis and quenching of reactive oxygen species and methylglyoxal.
IMR32 cells were treated for 48 hrs with CBR-470-1 and/or BBGC at combinations of doses in a synergy matrix (FIG. 41). […] Viability measured using cell titer glo assay (Promega). Viability decreased at higher concentrations of CBR-470-1 and BBGC start at 5 uM. […] Sensitivity of cell lines to direct inhibition of GLO1 (which detoxifies MGO) is generally correlated with sensitivity to PGK1 inhibition with CBR-470-1-consistent with MGO buildup playing a role in toxicity.

O=C(O)CN[C@H]1CS(=O)(=O)C[C@@H]1S(=O)(=O)c1ccc(Cl)c(Cl)c1 [CBR-470-2]
IL6 gene expression, lung tissue ([1]; LPS): decreased gene expression of IL6 | IL1b production, BAL cells ([1]; LPS 0.7 mg/kg intratracheally): decreased TNF, IL6, and IL1b production | IL6 production, BAL cells ([1]; LPS 0.7 mg/kg intratracheally): decreased TNF, IL6, and IL1b production; also recorded: decreased IL-6, and mRNA expression in immune cells (BAL cells) | TNF production, BAL cells ([1]; LPS 0.7 mg/kg intratracheally): decreased TNF, IL6, and IL1b production | NRF2 signaling in vivo (pharmacodynamic and efficacy data) (UVB skin damage model): capable of modulating NRF2 signaling in vivo

CC1(C)CC(O)CC(C)(C)N1[O] [Tempol]
effect of co-treatment with ROS scavenger on anti-proliferative effects of CBR-470-1 (IMR32 cells; co-treatment with CBR-470-1): does not effectively reduce anti-proliferative effects of CBR-470-1

CN(C)C(=N)N=C(N)N [metformin]
effect of co-treatment on viability effects of PGK1 inhibition (IMR32 cells; across cell lines, on average, IMR32 48 hr): do not strongly affect viability effects of PGK1 inhibition; also recorded: do not strongly effect viability effect of PGK1 inhibition
